# Entries after “also recorded” stand apart in the source; their conditions may differ. Where a name gives a salt, the structure may show the parent alone.
# Experiments:
# [1] = test system: platelets; assay: Manual count of single platelets and platelet aggregates in heparinized blood with anti-platelet drug candidates (Example 1); details: heparinized venous blood; for count of single platelets compared to EDTA reference / number of platelet aggregates compared to EDTA control: two concentration levels per drug; for platelet count compared to LiHep and PicoSAM controls: L-Arginine 600 μM and 6 mM, dipyridamole 10 and 100 μM
# Procedure: Each experiment was conducted on a separate day with blood from one voluntary donor testing one anti-platelet drug candidate. For each experiment PICO70 syringe samplers (Radiometer Medical ApS) were prepared just before sample drawing. For “LiHep” (Liquid Heparin) conditions, PICO70 samplers were emptied of the gold ball and heparin brick and 15 μl of aqueous liquid balanced heparin comprising heparin lithium (Celsus Laboratories) and heparin sodium (Celsus Laboratories) (final heparin conc. 60 IU/mL blood) and 15 μl of the solvent of the tested drug were added. For “PicoSAM” conditions, unmodified PICO70 samplers (with gold ball and heparin brick) were used and 15 μl of the solvent of the respective tested drug was added. For “LiHep xxx drug” conditions, PICO70 samplers were emptied as described for LiHep and 15 μl of liquid balanced heparin (final heparin conc. 60 IU/mL blood) and 15 μl of the dissolved tested drug were added. For “PicoSAM xxx drug” conditions, unmodified PICO70 samplers (with gold ball and heparin brick) were used and 15 μl of the dissolved tested drug was added. […] 600 μM and 6 mM) and dipyridamole (Sigma, D9766; dissolved in 1:10 or 1:100 DMSO in saline, final conc. 10 and 100 μM). An EDTA tube (BD Vacutainer with spray-coated K2EDTA, 10 ml) and duplicate samples of all conditions of PICO70 syringe samplers were filled by drawing venous blood via a butterfly needle using a sealed VTC (vented tip cap) to fill the otherwise self-aspirating PICO70 samplers with 1.5 mL venous whole blood. Samplers were inverted 8 times immediately after drawing to insure proper anti-coagulation of the samples. The blood samples were mixed gently by hand (samplers without gold ball) or on a SAM mixer (Radiometer Medical ApS) for 15 minutes after drawing the sample. Mixed samples were fixed immediately with 10% formalin solution (1:1 dilution of blood in formalin) for at least 10 minutes and further diluted 1:10 in platelet dilution solution to hemolyze red blood cells (RBCs) to assessed manual platelet count using a hemocytometer. […] Single platelet counts were adjusted for dilution with liquid heparin and or dissolved drug solution to calculate single platelet concentrations.
# [2] = test system: platelets and WBCs; assay: Wet mount images of stained and hemolyzed blood samples (Example 3); assay type: cell-based; details: for WBC aggregates / platelet satellinism (platelets binding to WBCs) / platelets (single or aggregated) in stained wet mounts: PicoSAM samples, tirofiban 1 μM, eptifibatide 20 μM, iloprost 100 nM, EDTA anti-coagulated blood
# Procedure: Venous blood samples were drawn and mixed as described before in Example 1 and used to prepare stained wet mounts images. Blood samples were mixed with a staining and hemolyzing agent (methylene blue and deoxycholic acid, respectively) and incubated at 47° C. in a water bath for 30 seconds. Stained and hemolyzed blood samples were then prepared in wet mount samples on a glass slide and covered with a glass coverslip. Images of stained samples were then acquired with a Leica 750 microscope using a 40× air objective in bright field mode. An image processing software (FIJI, ImageJ) was used to select regions of interest (ROIs) of representative stained WBCs from the images.
# [3] = test system: platelets; assay: Manual platelet count versus EDTA reference (Example 4); assay type: cell-based; details: for Mean Manual PLT count: Iloprost 1 μM in PicoSAM, EDTA reference
# Procedure: For each experiment PICO70 syringe samplers (Radiometer Medical ApS) were prepared just before sample drawing. For “LiHep” (Liquid Heparin) conditions, PICO70 samplers were emptied of the gold ball and heparin brick and 15 μl of aqueous liquid balanced heparin comprising heparin lithium (Celsus Laboratories) and heparin sodium (Celsus Laboratories) (final heparin conc. 60 IU/mL blood) and 15 μl of the solvent of the tested drug were added. For “PicoSAM” conditions, unmodified PICO70 samplers (with gold ball and heparin brick) were used and 15 μl of the solvent of the respective tested drug was added. For “LiHep xxx drug” conditions, PICO70 samplers were emptied as described for LiHep and 15 μl of liquid balanced heparin (final heparin conc. 60 IU/mL blood) and 15 μl of the dissolved tested drug were added. For “PicoSAM xxx drug” conditions, unmodified PICO70 samplers (with gold ball and heparin brick) were used and 15 μl of the dissolved tested drug was added. […] An EDTA tube (BD Vacutainer with spray-coated K2EDTA, 10 ml) and duplicate samples of all conditions of PICO70 syringe samplers were filled by drawing venous blood via a butterfly needle using a sealed VTC (vented tip cap) to fill the otherwise self-aspirating PICO70 samplers with 1.5 mL venous whole blood. Samplers were inverted 8 times immediately after drawing to insure proper anti-coagulation of the samples. The blood samples were mixed gently by hand (samplers without gold ball) or on a SAM mixer (Radiometer Medical ApS) for 15 minutes after drawing the sample. Mixed samples were fixed immediately with 10% formalin solution (1:1 dilution of blood in formalin) for at least 10 minutes and further diluted 1:10 in platelet dilution solution to hemolyze red blood cells (RBCs) to assessed manual platelet count using a hemocytometer. […] Single platelet counts were adjusted for dilution with liquid heparin and or dissolved drug solution to calculate single platelet concentrations.
# [4] = test system: platelets; assay: ABX platelet count, automated hematology analyzer (Example 4); assay type: cell-based; details: for Mean ABX PLT count: Iloprost 1 μM in PicoSAM, EDTA reference
# Procedure: Blood samples drawn and mixed after 15 minutes as described above were assessed with an automated hematology analyzer (Horiba, ABX Pentra 60C+) (ABX) for complete blood count (CBC) with 5-diff including WBC concentration, platelet concentration, mean platelet volume (MPV), concentrations and fractions of neutrophils, lymphocytes, monocytes, eosinophils and basophils, RBC concentration, hematocrit, hemoglobin concentration, RBC descriptive parameters (MCV, MCH, MCHC, RDW). Samples were prepared from several donors. Measured platelet concentration was used to compare to manually assessed platelet concentrations of iloprost heparin samples (in PICO70 samplers) and EDTA anti-coagulated samples. For control, EDTA samples with no platelet aggregates are used as reference measurement for the measured automated ABX platelet concentration.
# [5] = test system: platelets; assay: Microscopic wet mount images of fixed blood samples, platelet aggregation (Example 2); assay type: cell-based; details: 40x phase contrast, eptifibatide 20 μM added to heparin
# From the text: Venous blood samples drawn, mixed and fixed with 10% formalin solution, as described before in Example 1 were used to prepare wet mounts on a glass slide and covered with a glass coverslip. Wet mount samples of fixed blood cells were then imaged with a Leica 750 microscope using a 40× phase-contrast air objective.
compound,measurement,setting,value
"Clc1ccccc1CN1CCc2sccc2C1 [Ticlopidine, ticlopidine hydrochloride]",count of single platelets compared to EDTA reference,[1],similar
"CCCCS(=O)(=O)N[C@@H](Cc1ccc(OCCCCC2CCNCC2)cc1)C(=O)O [Tirofiban, tirofiban hydrochloride monohydrate]",WBC aggregates,[2],WBC aggregates were also observed
same,platelet satellinism (platelets binding to WBCs),[2],platelet satellinism
same,platelets (single or aggregated) in stained wet mounts,[2],single platelets
same,count of single platelets compared to EDTA reference,[1],comparable
same,number of platelet aggregates compared to EDTA control,[1],no or few
"CC#CCC(C)[C@H](O)/C=C/[C@@H]1[C@H]2C/C(=C/CCCC(=O)O)C[C@H]2C[C@H]1O (stereo partly drawn) [Iloprost, iloprost]",WBC aggregation in the blood sample,[2],very low WBC aggregation
same,WBC aggregates,[2],not platelet satellinism or WBC aggregates
same,platelet satellinism (platelets binding to WBCs),[2],not platelet satellinism
same,platelets (single or aggregated) in stained wet mounts,[2],single platelets
same,Mean Manual PLT count,[3]; Donor ID 4,198 PLT/nl
same,Mean Manual PLT count,[3]; Donor ID 5,242 PLT/nl
same,Mean Manual PLT count,[3]; Donor ID 6,154 PLT/nl
same,Mean Manual PLT count,[3]; Donor ID 7,247 PLT/nl
same,Mean Manual PLT count,[3]; Donor ID 8,203 PLT/nl
same,Mean Manual PLT count,[3]; Donor ID 9,202 PLT/nl
same,"average performance of platelet count compared to EDTA samples as reference, manual count","[3]; PicoSAM 100 nM iloprost, one donor",97%
same,"average performance of platelet count compared to EDTA samples as reference, manual count","[3]; PicoSAM 1 μM iloprost, eight donors",93%
same,Mean ABX PLT count,[4]; Donor ID 4,204 PLT/nl
same,Mean ABX PLT count,[4]; Donor ID 5,253 PLT/nl
same,Mean ABX PLT count,[4]; Donor ID 6,173 PLT/nl
same,Mean ABX PLT count,[4]; Donor ID 7,233 PLT/nl
same,Mean ABX PLT count,[4]; Donor ID 8,191 PLT/nl
same,Mean ABX PLT count,[4]; Donor ID 9,216 PLT/nl
same,"average performance of platelet count compared to EDTA samples as reference, ABX platelet count","[4]; PicoSAM 1 μM iloprost, seven donors",97%
same,count of single platelets compared to EDTA reference,[1],comparable
same,number of platelet aggregates compared to EDTA control,[1],no or few
eptifibatide acetate,platelet aggregates in microscopic images of blood samples,[5],cannot be observed; also recorded: cannot be seen
same,WBC aggregates,[2],WBC aggregates were also observed
same,platelet satellinism (platelets binding to WBCs),[2],platelet satellinism
same,platelets (single or aggregated) in stained wet mounts,[2],single platelets
same,count of single platelets compared to EDTA reference,[1],comparable
same,number of platelet aggregates compared to EDTA control,[1],no or few
"OCCN(CCO)c1nc(N2CCCCC2)c2nc(N(CCO)CCO)nc(N3CCCCC3)c2n1 [Dipyridamole, dipyridamole]",platelet count compared to LiHep and PicoSAM controls,[1],slightly higher
N=C(N)NCCC[C@H](N)C(=O)O [L-Arginine],count of single platelets compared to EDTA reference,[1],decreased
same,number of platelet aggregates compared to EDTA control,[1],higher
same,platelet count compared to LiHep and PicoSAM controls,[1],slightly higher
Heparin,platelet aggregates in microscopic images of blood samples,[5],allows or even potentiates platelet aggregation; also recorded: showed platelet aggregates
"O=C(O)CN(CCN(CC(=O)O)CC(=O)O)CC(=O)O [EDTA, Ethylenediaminetetraacetic acid]",platelet aggregates in microscopic images of blood samples,[5],prevents platelet activation and maintains single platelets; also recorded: cannot be seen
same,WBC aggregates,[2],same results
same,platelet satellinism (platelets binding to WBCs),[2],same results
same,platelets (single or aggregated) in stained wet mounts,[2],same results
same,Mean Manual PLT count,[3]; Donor ID 4,200 PLT/nl
same,Mean Manual PLT count,[3]; Donor ID 5,242 PLT/nl
same,Mean Manual PLT count,[3]; Donor ID 6,189 PLT/nl
same,Mean Manual PLT count,[3]; Donor ID 7,249 PLT/nl
same,Mean Manual PLT count,[3]; Donor ID 8,207 PLT/nl
same,Mean Manual PLT count,[3]; Donor ID 9,255 PLT/nl
same,Mean ABX PLT count,[4]; Donor ID 4,200 PLT/nl
same,Mean ABX PLT count,[4]; Donor ID 5,259 PLT/nl
same,Mean ABX PLT count,[4]; Donor ID 6,185 PLT/nl
same,Mean ABX PLT count,[4]; Donor ID 7,240 PLT/nl
same,Mean ABX PLT count,[4]; Donor ID 8,202 PLT/nl
same,Mean ABX PLT count,[4]; Donor ID 9,236 PLT/nl
